Test: pH adjustment of oritavancin/HPCD solution with 1N NaOH: visual observations
Format: physicochemical
Protocol: Reconstituting Orbactiv 400 mg (Oritavancin) in 20% w/v HPCD, diluting in saline then adjusting pH. The 50 mg/mL solution of oritavancin in 20% w/v HPCD (described in Table 3) was further diluted in 0.9% saline to 6 mg/mL in a small glass vial. The pH was adjusted using 1N NaOH. NaOH was added to the oritavancin solution in […] and vortexed. Visual observations and pH were recorded (Table 5).
Reconstituting Orbactiv 400 mg (Oritavancin) in 50% w/v HPCD aqueous solution, adjusting pH then diluting in saline. 6.269 g of HPCD was dissolved in 12.538 mL of water to make a 50% w/v solution (pH=7.23). Seven (7) mL of the 50% w/v solution was added to a 400 mg vial of Orbactiv for a target oritavancin concentration of 57.14 mg/mL. […] A 2 mL aliquot of 57.14 mg/mL was removed from the vial and placed in a small glass vial. The pH was adjusted to 6.5 using 1N NaOH. NaOH was added to the oritavancin solution in 5 μL increments and vortexed. Visual observations and pH were recorded (Table 6).
(§1) Reconstituting Orbactiv 400 mg (Oritavancin) in 50% w/v aqueous HPCD, adjusting pH then diluting in saline. 6.112 g of HPCD was dissolved in 12.224 mL of water to make a 50% w/v solution (pH=6.74). Seven (7) mL of the 50% w/v HPCD solution was added to a 400 mg vial of Orbactiv for a target oritavancin concentration of 57.14 mg/mL. […] A 3 mL aliquot of 57.14 mg/mL was removed from the vial and placed in a small glass vial. The pH was adjusted to 7 using 1N NaOH. NaOH was added to the oritavancin solution in 5 μL increments and vortexed. Visual observations and pH were recorded (Table 8).
as §1, with “20%” for “50%”, “3.555” for “6.112”, “17.775” for “12.224”, “(pH=6.88).” for “(pH=6.74).”, “recorded.” for “recorded”, “10).” for “8).”

Q: Which Observations (20% w/v HPCD reconstitution diluted in 0.9% saline, 1N NaOH 0 μL, pH 4.10, oritavancin 6.00 mg/mL) does the source give for `CN[C@H](CC(C)C)C(=O)N[C@H]1C(=O)N[C@@H](CC(N)=O)C(=O)N[C@H]2C(=O)N[C@H]3C(=O)N[C@H](C(=O)N[C@H](C(=O)O)c4cc(O)cc(O)c4-c4cc3ccc4O)[C@H](O[C@H]3C[C@](C)(N)[C@@H](O)[C@H](C)O3)c3ccc(c(Cl)c3)Oc3cc2cc(c3O[C@@H]2O[C@H](CO)[C@@H](O)[C@H](O)[C@H]2O[C@H]2C[C@](C)(NCc3ccc(-c4ccc(Cl)cc4)cc3)[C@@H](O)[C@H](C)O2)Oc2ccc(cc2Cl)[C@H]1O` [Oritavancin] here?
A: Its Observations is “Clear, colorless solution”.

Q: And the Observations (20% w/v HPCD reconstitution diluted in 0.9% saline, 1N NaOH 5 μL, pH 5.33, oritavancin 5.99 mg/mL)?
A: The Observations was “Clear, colorless solution”.

Q: What about the Observations (20% w/v HPCD reconstitution diluted in 0.9% saline, 1N NaOH 10 μL, pH 6.05, oritavancin 5.97 mg/mL) of the same compound?
A: Its Observations is “Clear, colorless solution”.

Q: And the “pH at which adjusting with 1N NaOH caused visible precipitation” value (20% w/v HPCD reconstitution diluted to 6 mg/mL in 0.9% saline)?
A: The value was greater than 6.

Q: And the Observations (50% w/v HPCD reconstitution (2 mL aliquot), 1N NaOH 0 μL, pH 4.08, oritavancin 57.14 mg/mL)?
A: The Observations was “Clear, colorless solution”.

Q: And the Observations (50% w/v HPCD reconstitution (2 mL aliquot), 1N NaOH 5 μL, pH 4.26, oritavancin 57.10 mg/mL)?
A: Its Observations is “Clear, colorless solution”.

Q: What about the Observations (50% w/v HPCD reconstitution (2 mL aliquot), 1N NaOH 10 μL, pH 4.56, oritavancin 57.06 mg/mL) of the same compound?
A: Its Observations is “Clear, colorless solution”.

Q: And the Observations (50% w/v HPCD reconstitution (2 mL aliquot), 1N NaOH 15 μL, pH 4.90, oritavancin 57.02 mg/mL)?
A: The Observations was “Clear, colorless solution”.

Q: And the Observations (50% w/v HPCD reconstitution (2 mL aliquot), 1N NaOH 20 μL, pH 5.19, oritavancin 56.98 mg/mL)?
A: The Observations was “Clear, colorless solution”.

Q: What about the Observations (50% w/v HPCD reconstitution (2 mL aliquot), 1N NaOH 25 μL, pH 5.39, oritavancin 56.94 mg/mL) of the same compound?
A: Its Observations is “Clear, colorless solution”.

Q: What about the Observations (50% w/v HPCD reconstitution (2 mL aliquot), 1N NaOH 30 μL, pH 5.65, oritavancin 56.90 mg/mL) of the same compound?
A: Its Observations is “Clear, colorless solution”.

Q: And the Observations (50% w/v HPCD reconstitution (2 mL aliquot), 1N NaOH 35 μL, pH 5.81, oritavancin 56.86 mg/mL)?
A: The Observations was “Clear, colorless solution”.

Q: And the Observations (50% w/v HPCD reconstitution (2 mL aliquot), 1N NaOH 40 μL, pH 6.10, oritavancin 56.82 mg/mL)?
A: Its Observations is “Clear, colorless solution”.

Q: And the Observations (50% w/v HPCD reconstitution (2 mL aliquot), 1N NaOH 45 μL, pH 6.17, oritavancin 56.78 mg/mL)?
A: The Observations was “Clear, colorless solution”.

Q: What about the Observations (50% w/v HPCD reconstitution (2 mL aliquot), 1N NaOH 50 μL, pH 6.33, oritavancin 56.74 mg/mL) of the same compound?
A: Its Observations is “Clear, colorless solution”.

Q: And the Observations (50% w/v HPCD reconstitution (3 mL aliquot), 1N NaOH 0 μL, pH 4.05, oritavancin 57.14 mg/mL)?
A: The Observations was “Clear, colorless solution”.

Q: What about the Observations (50% w/v HPCD reconstitution (3 mL aliquot), 1N NaOH 5 μL, pH 4.28, oritavancin 57.04 mg/mL) of the same compound?
A: Its Observations is “Clear, colorless solution”.

Q: What about the Observations (50% w/v HPCD reconstitution (3 mL aliquot), 1N NaOH 10 μL, pH 4.44, oritavancin 56.94 mg/mL) of the same compound?
A: Its Observations is “Clear, colorless solution”.

Q: And the Observations (50% w/v HPCD reconstitution (3 mL aliquot), 1N NaOH 15 μL, pH 4.68, oritavancin 56.84 mg/mL)?
A: Its Observations is “Clear, colorless solution”.

Q: What about the Observations (50% w/v HPCD reconstitution (3 mL aliquot), 1N NaOH 20 μL, pH 4.93, oritavancin 56.74 mg/mL) of the same compound?
A: The Observations was “Clear, colorless solution”.

Q: What about the Observations (50% w/v HPCD reconstitution (3 mL aliquot), 1N NaOH 25 μL, pH 5.11, oritavancin 56.64 mg/mL) of the same compound?
A: The Observations was “Clear, colorless solution”.

Q: What about the Observations (50% w/v HPCD reconstitution (3 mL aliquot), 1N NaOH 30 μL, pH 5.23, oritavancin 56.54 mg/mL) of the same compound?
A: The Observations was “Clear, colorless solution”.

Q: What about the Observations (50% w/v HPCD reconstitution (3 mL aliquot), 1N NaOH 35 μL, pH 5.36, oritavancin 56.44 mg/mL) of the same compound?
A: The Observations was “Clear, colorless solution”.

Q: And the Observations (50% w/v HPCD reconstitution (3 mL aliquot), 1N NaOH 40 μL, pH 5.48, oritavancin 56.35 mg/mL)?
A: Its Observations is “Clear, colorless solution”.

Q: What about the Observations (50% w/v HPCD reconstitution (3 mL aliquot), 1N NaOH 45 μL, pH 5.77, oritavancin 56.24 mg/mL) of the same compound?
A: Its Observations is “Clear, colorless solution”.

Q: And the Observations (50% w/v HPCD reconstitution (3 mL aliquot), 1N NaOH 50 μL, pH 5.82, oritavancin 56.14 mg/mL)?
A: Its Observations is “Clear, colorless solution”.

Q: What about the Observations (50% w/v HPCD reconstitution (3 mL aliquot), 1N NaOH 55 μL, pH 5.85, oritavancin 56.03 mg/mL) of the same compound?
A: Its Observations is “Clear, colorless solution”.

Q: What about the Observations (50% w/v HPCD reconstitution (3 mL aliquot), 1N NaOH 60 μL, pH 5.94, oritavancin 55.93 mg/mL) of the same compound?
A: Its Observations is “Clear, colorless solution”.

Q: And the Observations (50% w/v HPCD reconstitution (3 mL aliquot), 1N NaOH 65 μL, pH 6.05, oritavancin 55.83 mg/mL)?
A: Its Observations is “Clear, colorless solution”.

Q: And the Observations (50% w/v HPCD reconstitution (3 mL aliquot), 1N NaOH 70 μL, pH 6.15, oritavancin 55.72 mg/mL)?
A: The Observations was “Clear, colorless solution”.

Q: What about the Observations (50% w/v HPCD reconstitution (3 mL aliquot), 1N NaOH 75 μL, pH 6.20, oritavancin 55.61 mg/mL) of the same compound?
A: The Observations was “Clear, colorless solution”.

Q: What about the Observations (50% w/v HPCD reconstitution (3 mL aliquot), 1N NaOH 80 μL, pH 6.23, oritavancin 55.50 mg/mL) of the same compound?
A: Its Observations is “Clear, colorless solution”.

Q: And the Observations (50% w/v HPCD reconstitution (3 mL aliquot), 1N NaOH 85 μL, pH 6.34, oritavancin 55.39 mg/mL)?
A: The Observations was “Clear, colorless solution”.

Q: And the Observations (50% w/v HPCD reconstitution (3 mL aliquot), 1N NaOH 90 μL, pH 6.32, oritavancin 55.28 mg/mL)?
A: The Observations was “Clear, colorless solution”.

Q: And the Observations (50% w/v HPCD reconstitution (3 mL aliquot), 1N NaOH 95 μL, pH 6.38, oritavancin 55.17 mg/mL)?
A: Its Observations is “Clear, colorless solution”.

Q: And the Observations (50% w/v HPCD reconstitution (3 mL aliquot), 1N NaOH 100 μL, pH 6.46, oritavancin 55.07 mg/mL)?
A: Its Observations is “Clear, colorless solution”.

Q: And the Observations (50% w/v HPCD reconstitution (3 mL aliquot), 1N NaOH 105 μL, pH 6.57, oritavancin 54.95 mg/mL)?
A: Its Observations is “Clear, colorless solution”.

Q: And the Observations (50% w/v HPCD reconstitution (3 mL aliquot), 1N NaOH 110 μL, pH 6.59, oritavancin 54.84 mg/mL)?
A: The Observations was “Clear, colorless solution”.

Q: What about the Observations (50% w/v HPCD reconstitution (3 mL aliquot), 1N NaOH 115 μL, pH 6.71, oritavancin 54.73 mg/mL) of the same compound?
A: Its Observations is “Clear, colorless solution”.

Q: And the Observations (50% w/v HPCD reconstitution (3 mL aliquot), 1N NaOH 120 μL, pH 6.70, oritavancin 54.61 mg/mL)?
A: Its Observations is “Clear, colorless solution”.

Q: What about the Observations (50% w/v HPCD reconstitution (3 mL aliquot), 1N NaOH 125 μL, pH 6.75, oritavancin 54.50 mg/mL) of the same compound?
A: The Observations was “Clear, colorless solution”.

Q: What about the Observations (50% w/v HPCD reconstitution (3 mL aliquot), 1N NaOH 130 μL, pH 6.90, oritavancin 54.38 mg/mL) of the same compound?
A: The Observations was “Clear, colorless solution”.

Q: And the Observations (50% w/v HPCD reconstitution (3 mL aliquot), 1N NaOH 135 μL, pH 6.90, oritavancin 54.26 mg/mL)?
A: Its Observations is “Clear, colorless solution”.

Q: What about the Observations (50% w/v HPCD reconstitution (3 mL aliquot), 1N NaOH 140 μL, pH 6.96, oritavancin 54.14 mg/mL) of the same compound?
A: Its Observations is “Clear, colorless solution”.

Reference: patent US20170239323A1, “ORITAVANCIN FORMULATIONS” (The Medicines Company, priority 2016, published 2017)
